PubChem BioAssay (NCI)
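1) Cells in 96-well plates. 2) Compound, 48 h, 5 concentrations. 3) Linear interpolation between surrounding doses. 4) Unreached endpoint = highest concentration. Here, GI50 denotes the concentration required for 50% inhibition of growth. TGI: total growth inhibition.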

Assays:
Assay in all cases: NCI tumour cell line growth inhibition, 48 h
[1] = tested on: A549 NSCLC
[2] = tested on: CCRF-CEM leukemia
[3] = tested on: COLO 205 colon
[4] = tested on: HL-60(TB) leukemia
[5] = tested on: HOP-92 NSCLC
[6] = tested on: HT29 colon
[7] = tested on: NCI-H226 lung
[8] = tested on: NCI-H23 lung
[9] = tested on: SK-MEL-2 melanoma
[10] = tested on: SK-OV-3 ovarian

| Structure (SMILES) | GI50 [1] | TGI [1] | GI50 [2] | TGI [2] | GI50 [3] | TGI [3] | GI50 [4] | TGI [4] | TGI [5] | GI50 [6] | TGI [6] | GI50 [7] | TGI [7] | GI50 [8] | TGI [8] | GI50 [9] | TGI [9] | GI50 [10] | TGI [10] | GI50 [5] |
| --- | --- | --- | --- | --- | --- | --- | --- | --- | --- | --- | --- | --- | --- | --- | --- | --- | --- | --- | --- | --- |
| CS(=O)(=O)Nc1cccc(-c2ccc3c(NC(=O)C4CC4)n[nH]c3c2)c1 | 10.9 µM | > 25 µM | 1.33 µM | > 25 µM | 1.81 µM | > 12.9 µM | 1.73 µM | 10.8 µM | > 25 µM | 3.88 µM | > 25 µM | 2.59 µM | > 25 µM | 10.2 µM | > 25 µM | 1.37 µM | > 25 µM | 3.92 µM | 15.7 µM |  |
| O=C1Cc2ccccc2N1c1c(Cl)cccc1Cl |  | > 100 µM |  | > 100 µM |  | > 100 µM |  | 50.8 µM | > 100 µM |  | > 100 µM |  | > 100 µM |  | > 100 µM |  | > 100 µM |  | > 100 µM |  |
| O=c1oc2ccc(F)cc2c(=O)n1-c1ccc(Cl)cc1F | 2.17 µM | > 100 µM | 2.62 µM | 13 µM | 2.14 µM | 4.87 µM | 0.578 µM | 2.73 µM | 0.613 µM | 3.29 µM | > 34.2 µM | 1.22 µM | 4.91 µM | 0.604 µM | 5.16 µM | 0.42 µM | 2.53 µM | 0.584 µM | 2.58 µM | 0.205 µM |
| COc1ccc(/C(=N\O)c2cc(OC)c(OC)c(OC)c2)c(OC)c1N | 6.26 µM | > 100 µM | 3.54 µM | > 100 µM | 2.23 µM | 6.5 µM | 2.6 µM | 6.55 µM | > 100 µM | 3.4 µM | > 100 µM | 46.6 µM | > 100 µM | 6.45 µM | > 100 µM | 7.48 µM | > 100 µM | 3.82 µM | > 100 µM | > 100 µM |
| COc1cc(C(=O)N2CCN(c3ccccc3OC)CC2)c(N)cc1OCc1ccccc1 | 34.8 µM | > 100 µM | 34.7 µM | 98.3 µM | 59.4 µM | > 100 µM | 25.5 µM | 48.8 µM | 43.4 µM | 31.3 µM | > 100 µM | 38.3 µM | > 100 µM | 48.4 µM | > 100 µM | 28.2 µM | 66.8 µM | 49.9 µM | > 100 µM | 14.8 µM |
| CCC[CH2][Sn]1([CH2]CCC)[O]C(=O)c2cccc(OC)c2[O]1 | 1.76 µM | 3.37 µM | 0.0261 µM |  | 0.491 µM | 1.78 µM | 0.106 µM | 0.98 µM | 0.486 µM | 0.798 µM | 2.09 µM | 1.63 µM | 3.04 µM | 0.265 µM | 1.25 µM | 0.156 µM | 0.574 µM | 1.39 µM | 2.71 µM | < 0.0456 µM |
| N#Cc1c(-c2ccc(Cl)cc2)c(-c2ccc(Cl)cc2)nn(CCOC(=O)CCC(=O)O)c1=O |  | > 88.6 µM |  | > 43.6 µM |  | 2.57 µM |  | 10.5 µM | 15.2 µM |  | 6.39 µM |  | 1.42 µM |  | 19.6 µM |  | 28.2 µM |  | 30.8 µM |  |
| COc1ccc2c(c1)C(=O)/C(=C/c1ccc([N+](=O)[O-])s1)O2 | 1.06 µM | 4.07 µM | 0.308 µM |  | 0.49 µM | 1.68 µM | 0.713 µM | > 26.1 µM | 1.23 µM | 0.502 µM | 2.67 µM | 1.91 µM | 4.81 µM | 0.709 µM | 3.53 µM | 0.325 µM | 0.875 µM | 2.68 µM | 7.77 µM | 0.23 µM |
| O=C(N/N=c1/ccoc2cccnc12)N1CCN(c2ncccn2)CC1 | 0.324 µM | 9.81 µM | < 0.01 µM | > 54.4 µM | < 0.01 µM | 7.57 µM | 0.0149 µM | 1.69 µM | 2.68 µM | < 0.01 µM | 7.39 µM |  | 2.56 µM | 0.0308 µM | 16.7 µM | 1.11 µM | 8.42 µM | 0.194 µM | 4.55 µM | 0.017 µM |
| CCCCCCCCCCCCCCCCOC(=O)c1c(C)[nH]c(/C=C2\N=C(c3ccc[nH]3)C=C2OC)c1C | 0.239 µM | 12.8 µM | 32.9 µM | > 100 µM | 3.81 µM | > 100 µM | 0.151 µM | > 100 µM | 0.83 µM | 0.083 µM | > 100 µM | 4.54 µM | 15.2 µM | 1.15 µM | 12.7 µM | 0.249 µM | 1.34 µM | 2.35 µM | 5.9 µM | 0.2 µM |
| Cc1cc(O)ccc1O | > 100 µM | > 100 µM | 3.4 µM | > 100 µM | 23.7 µM | 47.6 µM | 2.64 µM | 7.43 µM | 31.2 µM | 49.8 µM | > 100 µM | 55.6 µM | > 100 µM | 39.4 µM | > 100 µM | > 100 µM | > 100 µM | 72.9 µM | > 100 µM | 16.3 µM |
